Measured values taken from patent publication US9278968B2, “Imidazopyridine compounds” (ASTELLAS PHARMA INC., priority 2012, dated 2016).

Assays:
[1] = tested on: hind limb blood flow in rats anesthetized with pentobarbital; assay: Blood flow increasing action in vivo (hind limb blood flow, anesthetized rats); set-up: species or system Wistar male rats; conditions: oral, 2 hours after administration, effective when blood flow rate 130% or more of solvent group
Protocol: The hind limb blood flow increasing action in rats anesthetized with pentobarbital was confirmed by the following test method.
Wistar male rats, 11- to 14-week (Japan SLC, Inc.) were used. An administration liquid was prepared by adding N,N-dimethyl formamide, Polyethylene Glycol 400, TWEEN 80, a 0.5% methyl cellulose aqueous solution, a 0.5 M aqueous sodium hydrogen carbonate solution, and 0.1 M hydrochloric acid to the test compound and dissolving the Example compound in an appropriate manner depending on the compound. The prepared administration liquid was orally administered, and 2 hours later, the hind limb blood flow increasing action was evaluated under anesthesia with intraperitoneally administration of 60 mg/kg of pentobarbital The hind limb blood flow was measured using a laser blood flow imaging device (PIM II Integral). By taking the average blood flow rate of a group with the administration of a solvent as 100%, the compound was evaluated to be effective when the blood flow rate was 130% or more by the administration of the compound.

[2] = molecular target: human purified sGC (heterodimer of sGCα1 and sGCβ1) (Homo sapiens (Human), UniProt Q02108+Q02153); assay: sGC activation test (cGMP produced, HTRF); assay type: biochemical; conditions: maximum activity of Preparation Example 200 compound (maximum 100 μM) taken as 100%; with SNP; read-out: EC50 (concentration giving 50% of maximum activity)
Sequence of human purified sGC (heterodimer of sGCα1 and sGCβ1) (Q02108 whole entry): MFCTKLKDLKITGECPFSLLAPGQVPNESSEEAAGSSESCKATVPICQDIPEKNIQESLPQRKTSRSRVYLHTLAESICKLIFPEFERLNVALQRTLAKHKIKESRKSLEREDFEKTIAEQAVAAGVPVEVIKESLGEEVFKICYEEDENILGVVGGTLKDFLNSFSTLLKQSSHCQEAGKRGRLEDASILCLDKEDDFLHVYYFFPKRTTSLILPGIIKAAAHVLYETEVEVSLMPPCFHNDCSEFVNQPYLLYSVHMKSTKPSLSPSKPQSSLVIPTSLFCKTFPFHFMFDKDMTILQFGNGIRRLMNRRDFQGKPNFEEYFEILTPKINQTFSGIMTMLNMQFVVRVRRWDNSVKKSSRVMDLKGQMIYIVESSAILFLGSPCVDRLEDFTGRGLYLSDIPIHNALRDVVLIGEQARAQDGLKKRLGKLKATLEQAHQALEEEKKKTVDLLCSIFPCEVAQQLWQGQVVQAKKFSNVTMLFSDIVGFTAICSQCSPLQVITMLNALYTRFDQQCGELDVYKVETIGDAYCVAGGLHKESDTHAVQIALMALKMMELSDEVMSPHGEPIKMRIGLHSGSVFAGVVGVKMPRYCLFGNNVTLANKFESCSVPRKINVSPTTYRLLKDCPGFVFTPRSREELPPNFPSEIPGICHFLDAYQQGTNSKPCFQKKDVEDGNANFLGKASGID
Sequence of human purified sGC (heterodimer of sGCα1 and sGCβ1) (Q02153 whole entry): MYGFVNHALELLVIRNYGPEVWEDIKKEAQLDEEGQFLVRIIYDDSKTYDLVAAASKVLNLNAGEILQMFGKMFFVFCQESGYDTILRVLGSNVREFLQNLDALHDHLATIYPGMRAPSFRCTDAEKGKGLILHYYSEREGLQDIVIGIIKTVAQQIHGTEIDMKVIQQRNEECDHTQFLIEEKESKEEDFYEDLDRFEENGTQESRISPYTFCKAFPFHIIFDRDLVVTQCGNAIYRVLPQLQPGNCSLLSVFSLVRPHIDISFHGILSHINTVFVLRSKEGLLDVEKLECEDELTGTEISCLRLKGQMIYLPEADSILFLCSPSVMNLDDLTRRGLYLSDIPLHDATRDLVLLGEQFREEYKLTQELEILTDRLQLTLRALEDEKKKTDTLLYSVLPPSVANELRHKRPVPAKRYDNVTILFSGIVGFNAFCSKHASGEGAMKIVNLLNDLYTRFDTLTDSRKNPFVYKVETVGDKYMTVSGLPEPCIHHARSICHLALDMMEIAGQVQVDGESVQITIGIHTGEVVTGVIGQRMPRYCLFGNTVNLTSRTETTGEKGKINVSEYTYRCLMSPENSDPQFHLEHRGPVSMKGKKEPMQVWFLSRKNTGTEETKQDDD
Protocol: The activity of sGC was evaluated by measuring the amount of cGMP produced by human purified sGC.
Using an sGCα 1 gene (NCBI accession No. BC028384.2) and an sGCβ1 gene (NCBI accession No. BC047620.1), an N-terminal FLAG tag-fused sGCα1 and an sGCβ1 expression baculovirus were prepared. These viruses were transfected into insect cells Sf9 (Cat. No. 11496-015, Gibco) to express a protein. From the cell lysates of the insect cells, heterodimers of the N-terminal FLAG tag-fused sGCα1 and sGCβ1 were purified with an M2 Affinity Gel (Sigma-Aldrich, Inc.) to obtain a human sGC.
An Example compound was dissolved in DMSO and diluted 20-fold with ultrapure water. 2 μL of the diluted Example compound solution (maximum concentration of 100 μM), 2 μL of a substrate solution [0.5 μM triethanolamine buffer solution, 0.03 μM dithiothreitol, 0.01 μM GTP, 0.04 μM MgCl2, and 0.03 μM sodium nitroprusside (SNP)], and 6 μL of a human enzyme suspension were added to 384-well plates (manufactured by Greiner Bio-One), and incubated at room temperature for one hour. The measurement of the amount of cGMP was carried out, using an HTRF reagent (Cisbio).
The sGC activation action of the Example compound was calculated as an Example compound concentration which gives 50% of a maximum activity (EC50), in which the maximum activity by the addition of a compound shown in Preparation Example 200, 8-(cyclohexylmethoxy)-N-[(1R)-2-hydroxy-1-phenylethyl]-2-methylimidazo[1,2-a]pyridine-3-carboxamide hydrochloride (maximum 100 μM), is taken as 100%. Further, the maximum activity of sGC with the addition of 8-(cyclohexylmethoxy)-N-[(1R)-2-hydroxy-1-phenylethyl]-2-methylimidazo[1,2-a]pyridine-3-carboxamide hydrochloride is 10-fold or more relative to the sGC activation without the addition of the compound, and it is recognized that the compound has a good sGC activating action. […] The test results of some Example compounds that are the compounds of the formula (I) of the present invention are shown below. Further, in Tables, Ex. represents Example number.

| EC50 [2] [µM] | Structure (SMILES) | other results |
| --- | --- | --- |
| 1.3 | Cc1cnc([C@](C)(CO)NC(=O)c2c(C)nc3c(OCc4c(F)cccc4F)cccn23)s1 [Example 77] | hind limb blood flow increasing action ([1]; 0.3 mg/kg): exhibited a blood flow increasing action |
| 24 | Cc1nc2c(OCc3c(F)cccc3F)cccn2c1C(=O)N[C@]1(c2ccccn2)C[C@@H](O)[C@@H](O)C1 [Example 67] | hind limb blood flow increasing action ([1]; 3 mg/kg): exhibited a blood flow increasing action |
| 5.8 | Cc1nc2c(OCc3c(F)cccc3F)cccn2c1C(=O)NC(C)(CO)c1nnn(C2CC2)n1 (stereo not shown) [Example 76] | hind limb blood flow increasing action ([1]; 3 mg/kg): exhibited a blood flow increasing action |
| 3.8 | Cc1nc2c(OCc3c(F)cccc3F)cccn2c1C(=O)NC(CO)(CO)c1ccc(Cl)cn1 [Example 70] | hind limb blood flow increasing action ([1]; 1 mg/kg): exhibited a blood flow increasing action |
| 2.5 | Cc1cnc(C(C)(CO)NC(=O)c2c(C)nc3c(OCc4c(F)cccc4F)cccn23)o1 (stereo not shown) [Example 38] | hind limb blood flow increasing action ([1]; 1 mg/kg): exhibited a blood flow increasing action |
| 2.7 | Cc1nc2c(OCc3c(F)cccc3F)cccn2c1C(=O)N[C@@H](CO)c1nnn(C(F)F)n1 [Example 83] | hind limb blood flow increasing action ([1]; 1 mg/kg): exhibited a blood flow increasing action |
| 5.3 | Cc1nc(C(C)(CO)NC(=O)c2c(C)nc3c(OCc4c(F)cccc4F)cccn23)no1 (stereo not shown) [Example 41] | hind limb blood flow increasing action ([1]; 0.3 mg/kg): exhibited a blood flow increasing action |
| 4.6 | Cc1noc(C(C)(CO)NC(=O)c2c(C)nc3c(OCc4c(F)cccc4F)cccn23)n1 (stereo not shown) [Example 39] | hind limb blood flow increasing action ([1]; 1 mg/kg): exhibited a blood flow increasing action |
| 1.6 | Cc1nc2c(OCc3c(F)cccc3F)cccn2c1C(=O)N[C@@](C)(CO)c1ccccc1F [Example 18] | hind limb blood flow increasing action ([1]; 1 mg/kg): exhibited a blood flow increasing action |
| 4.6 | Cc1nc2c(OCc3c(F)cccc3F)cccn2c1C(=O)N[C@@](C)(CO)c1nnn(C)n1 (stereo in doubt) [Example 108a, 8-[(2,6-difluorobenzyl)oxy]-N-[1-hydroxy-2-(2-methyl-2H-tetrazol-5-yl)propan-2-yl]-2-methylimidazo[1,2-a]pyridine-3-carboxamide] | hind limb blood flow increasing action ([1]; 0.3 mg/kg): exhibited a blood flow increasing action |
| 2.7 | Cc1cnc(C(CO)(CO)NC(=O)c2c(C)nc3c(OCc4c(F)cccc4F)cccn23)s1 [Example 72] | hind limb blood flow increasing action ([1]; 1 mg/kg): exhibited a blood flow increasing action |
| 5.5 | CCc1nnc(C(C)(CO)NC(=O)c2c(C)nc3c(OCc4c(F)cccc4F)cccn23)o1 (stereo not shown) [Example 1, 8-[(2,6-difluorobenzyl)oxy]-N-[2-(5-ethyl-1,3,4-oxadiazol-2-yl)-1-hydroxypropan-2-yl]-2-methylimidazo[1,2-a]pyridine-3-carboxamide] | hind limb blood flow increasing action ([1]; 1 mg/kg): exhibited a blood flow increasing action |
| 9.6 | Cc1nc2c(OCc3c(F)cccc3F)cccn2c1C(=O)NC(C)(CO)c1nnn(C)n1 (stereo not shown) [Example 7a, 8-[(2,6-difluorobenzyl)oxy]-N-[1-hydroxy-2-(2-methyl-2H-tetrazol-5-yl)propan-2-yl]-2-methylimidazo[1,2-a]pyridine-3-carboxamide] | hind limb blood flow increasing action ([1]; 3 mg/kg): exhibited a blood flow increasing action |
| 11 | Cc1nc2c(OCc3c(F)cccc3F)cccn2c1C(=O)NC(C)(CO)c1ccn(C)n1 (stereo not shown) [Example 36] | hind limb blood flow increasing action ([1]; 1 mg/kg): exhibited a blood flow increasing action |
| 1.5 | Cc1nc2c(OCc3c(F)cccc3F)cccn2c1C(=O)N[C@@](C)(CO)c1ccc(CO)cc1 (stereo in doubt) [Example 107a, 8-[(2,6-difluorobenzyl)oxy]-N-{1-hydroxy-2-[4-(hydroxymethyl)phenyl]propan-2-yl}-2-methylimidazo[1,2-a]pyridine-3-carboxamide] | hind limb blood flow increasing action ([1]; 3 mg/kg): exhibited a blood flow increasing action |
| 1.7 | Cc1nc2c(OCc3c(F)cccc3F)cccn2c1C(=O)NC(C)(CO)c1nnn(C(F)F)n1 (stereo not shown) [Example 6, 8-[(2,6-difluorobenzyl)oxy]-N-{2-[2-(difluoromethyl)-2H-tetrazol-5-yl]-1-hydroxypropan-2-yl}-2-methylimidazo[1,2-a]pyridine-3-carboxamide] | hind limb blood flow increasing action ([1]; 0.1 mg/kg): exhibited a blood flow increasing action |
| 3.6 | Cc1nc2c(OCc3c(F)cccc3F)cccn2c1C(=O)N[C@@](C)(CO)c1ncc(CO)s1 [Example 19] | hind limb blood flow increasing action ([1]; 1 mg/kg): exhibited a blood flow increasing action |

| EC50 [2] [µM] | Structure (SMILES) | other results |
| --- | --- | --- |
| 2.2 | Cc1nc2c(OCc3c(F)cccc3F)cccn2c1C(=O)NC(C)(CO)c1ccc(F)c(CO)c1 (stereo not shown) [Example 52] | hind limb blood flow increasing action ([1]; 3 mg/kg): exhibited a blood flow increasing action |
| 4.9 | Cc1nc2c(OCc3c(F)cccc3F)cccn2c1C(=O)NCc1ccccc1[C@@H](O)[C@@H](C)O [Example 31] | hind limb blood flow increasing action ([1]; 3 mg/kg): exhibited a blood flow increasing action |
| 6.4 | Cc1nnc(C(C)(CO)NC(=O)c2c(C)nc3c(OCc4c(F)cccc4F)cccn23)o1 (stereo not shown) [Example 35] | hind limb blood flow increasing action ([1]; 0.3 mg/kg): exhibited a blood flow increasing action |
| 1.3 | Cc1nc2c(OCc3c(F)cccc3F)cccn2c1C(=O)N[C@@](C)(CO)c1ccccn1 [Example 11] | hind limb blood flow increasing action ([1]; 1 mg/kg): exhibited a blood flow increasing action |
| 2.6 | Cc1nc2c(OCC3CCCCC3)cccn2c1C(=O)N[C@@](C)(CO)c1cccc(-c2nnn(C)n2)c1 [Example 102] | – |
| 2.9 | [C-]#[N+]c1cccc([C@](C)(CO)NC(=O)c2c(C)nc3c(OCC4CCCCC4)cccn23)c1 [Example 85] | – |
| 2 | Cc1nc2c(OCc3c(F)cccc3F)cccn2c1C(=O)NC(CO)(CO)c1cccc(F)c1 [Example 55] | – |
| 0.78 | Cc1nc2c(OCc3c(F)cccc3F)cccn2c1C(=O)N[C@@](C)(CO)c1cccc(C(N)=O)c1 [Example 12] | – |
| 0.72 | Cc1nc2c(OCC3CCCCC3)cccn2c1C(=O)N[C@@](C)(CO)c1cccc(C(=O)O)c1 [Example 3, 3-[(2R)-2-({ [8-(cyclohexylmethoxy)-2-methylimidazo[1,2-a]pyridin-3-yl]carbonyl}amino)-1-hydroxypropan-2-yl]benzoic acid] | – |
| 3.6 | Cc1ncc([C@H](CO)NC(=O)c2c(C)nc3c(OCc4c(F)cccc4F)cccn23)s1 [Example 24] | – |
| 1.9 | Cc1nc2c(OCc3c(F)cccc3F)cccn2c1C(=O)N[C@@H](C)c1ccccc1[C@@H](O)CO (stereo in doubt) [Example 59] | – |
| 11 | Cc1nc2c(OCc3c(F)cccc3F)cccn2c1C(=O)NCc1cccnc1[C@@H](O)[C@@H](C)O (racemic) [Example 89] | – |
| 20 | Cc1nc2c(OCc3c(F)cccc3F)cccn2c1C(=O)N[C@@H](CO)c1nnc(C2CC2)o1 [Example 46] | – |
| 0.56 | Cc1nc2c(OCC3CCCCC3)cccn2c1C(=O)N[C@@](C)(CO)c1cccc(-c2nn[nH]n2)c1 [Example 111] | – |
| 5.6 | CCc1nnc(C(C)(CO)NC(=O)c2c(C)nc3c(OCC4CCCCC4)cccn23)o1 (stereo not shown) [Example 86] | – |
| 12 | Cc1nc2c(OCc3ccccc3F)cccn2c1C(=O)NC(C)(CO)c1ccc(CO)cc1 (stereo not shown) [Example 51] | – |
| 24 | Cc1nc2c(OCc3c(F)cccc3F)cccn2c1C(=O)N[C@@H](CO)c1nnn(C)n1 [Example 26] | – |

| Structure (SMILES) | EC50 [2] [µM] | other results |
| --- | --- | --- |
| Cc1nc2c(OCC3CCCCC3)cccn2c1C(=O)N[C@@H](CO)c1nnn(C)n1 [Example 34] | 11 | – |
| Cc1nnc([C@H](CO)NC(=O)c2c(C)nc3c(OCC4CCCCC4)cccn23)o1 [Example 43] | 14 | – |
| CCc1nnc([C@H](CO)NC(=O)c2c(C)nc3c(OCC4CCCCC4)cccn23)o1 [Example 45] | 9.1 | – |
